Assay results published in patent US20260014125A1, “BICYCLIC-TYPE MAT2A INHIBITOR AND USE THEREOF” (HAIHE BIOPHARMA CO., LTD., priority 2022, published 2026).

Columns and labels:
MAT2A = MAT2A (Homo sapiens (Human), UniProt P31153); test: Biochemical test: inhibition of MAT2A enzyme activity (phosphate detection, OD620); conditions: MAT2A his-tag; 150 minutes enzymatic reaction
Summary of the method: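 His-tagged human MAT2A was preincubated 15 min with compound (10 µM top, 3-fold, 10 points, duplicate), then reacted with ATP and L-methionine for 150 min. Released phosphate was measured at OD620 after Biomol stop reagent. IC50 was fitted from inhibition relative to no-enzyme and DMSO controls.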

[1] = tested on: human B-cell lymphoma DOHH-2 cell subcutaneous xenograft tumor; test: In vivo anti-tumor efficacy in the DOHH-2 cell subcutaneous xenograft tumor model; design: species or system mice; conditions: DOHH-2 xenograft; for T/C (%) / TGI (%): BID, intragastric, female CB-17 SCID mice
Procedure: The in vivo anti-tumor efficacy of compound 13 and AG-270 (MAT2A inhibitor,
were evaluated using a human B-cell lymphoma DOHH-2 cell subcutaneous xenograft tumor model.
The female CB-17 SCID mice used were purchased from Beijing Vital River Laboratory Animal Technology Co., Ltd. Tumor cell culture and subcutaneous inoculation: Human B-cell lymphoma DOHH-2 cells (DSMZ) were cultured in vitro in RPMI-1640 medium containing 10% fetal bovine serum and 1% […], and incubated in a 5% CO2 incubator at 37° C. When the required number of cells was reached, the cells were collected, and counted. 0.2 mL (10×10^6) of DOHH-2 cells (with matrix gel added, volume ratio of 1:1) were subcutaneously inoculated into the right back of each mouse. When the average tumor volume reached 100-150 mm^3, random grouping would begin, with 5 mice in each group. The administration group (compound 13 or compound AG-270) was performed intragastric administration twice a day (dosage shown in Table 3), while the negative control group was performed intragastric administration using the same volume of blank solvent per day.
The experimental indicator was to examine whether tumor growth was inhibited, delayed, or cured. The tumor diameter was measured twice a week using a vernier caliper. The formula for calculating tumor volume was: V=0.5a×b^2, wherein a and b indicated the long and short diameters of tumors, respectively.
The anti-tumor efficacy of the compound was evaluated using TGI (%) or relative tumor proliferation rate T/C (%).
TGI (%) reflects the tumor growth inhibition rate. Calculation of TGI (%). TGI (%)=[(1−(average tumor volume at the end of administration in the treatment group-average tumor volume at the beginning of administration in the treatment group))/(average tumor volume at the end of treatment in the negative control group-average tumor volume at the beginning of treatment in the negative control group)]×100%.
Relative tumor proliferation rate TIC (%): The calculation formula was as follows: T/C %=TRTV/CRTV×100% (TRTV: administration group RTV: CRTV: negative control group RTV). The calculation formula of the relative tumor volume (RTV) was RTV=Vt/V0, wherein V0 was the average tumor volume measured at the time of group administration (i.e. d0), Vt was the average tumor volume measured at a certain measurement, and TRTV and CRTV took the same day's data.

KP-4 cells = test: Human pancreatic cancer KP-4 cell activity inhibition test (CellTiter-Glo); type: cell-based; conditions: Homo sapiens, 120 h, 5 days
Procedure: Experimental principle: after co-incubating the MAT2A inhibitor to be tested with KP-4 cells for a period of time, a cell viability measurement method based on ATP content is used to characterize the effect of the tested compound on cell viability.
Experimental material: KP-4 cells (JCRB #JCRB0182); IMDM (Gibco 912440061); fetal bovine serum (EXCELL #FND500); penicillin-streptomycin (Gibco #15140-122); 0.25% Typsin-EDTA (Gibco #252(101-072); DMSO (Sigma #D2650); 96 well plate (Corning #3610); CellTiter-Glo (Promega #G7571)
1. KP-4 cells were cultured in IMDM culture medium containing 10% e fetal bovine serum and 1% penicillin-streptomycin at 37° C. and 5% CO2 in a cell culture incubator. Only cells in logarithmic growth phase were used for subsequent experiments.
2. The cells in logarithmic growth phase were inoculated into a 96 well plate, with a seeding quantity of 500 cells per well, and incubated overnight in a cell culture incubator at 37′C and 5% CO2.
3. The compound was dissolved with DMSO, diluted with culture medium to 10 different concentrations (approximately […]), 3333.3, 1111.1, 370, 123, 41.2, 13.7, 4.6, 1.5, and 0.5 nM) before adding it to the cell plate, and cultured at 37° C. and 5% CO2 for 5 days.
4. CellTiter-Glo reagent was added, and an enzyme-linked immunosorbent assay reader was used to detect cell viability.
Data analysis: the inhibition rate (%) of the compound was calculated and fitted to obtain the IC50 of the tested compound. Calculation method for compound inhibition rate: Compound inhibition rate (%)=(Signal_max−Signal_sample)/(Signal_max−Signal_min)×100, wherein Signal_sample was the sample well reading, indicating the cell activity of the compound inhibition well; Signal_min was the positive control well reading, indicating the background activity without cells; and Signal_max was the negative control well reading, indicating the cell activity of the well without compound inhibition.

Sequence of MAT2A (P31153 whole entry): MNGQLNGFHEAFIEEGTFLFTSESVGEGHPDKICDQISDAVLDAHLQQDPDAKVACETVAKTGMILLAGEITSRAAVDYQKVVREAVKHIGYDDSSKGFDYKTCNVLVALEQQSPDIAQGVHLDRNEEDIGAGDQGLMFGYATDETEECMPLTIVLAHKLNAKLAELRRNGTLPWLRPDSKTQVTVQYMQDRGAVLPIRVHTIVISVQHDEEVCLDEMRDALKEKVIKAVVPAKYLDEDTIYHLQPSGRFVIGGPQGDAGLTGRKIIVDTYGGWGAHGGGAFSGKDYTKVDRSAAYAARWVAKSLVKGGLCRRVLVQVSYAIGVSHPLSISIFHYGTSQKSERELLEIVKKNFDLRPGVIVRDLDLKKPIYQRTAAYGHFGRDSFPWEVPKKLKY

IC50 (MAT2A): 15.1 nM
IC50 (KP-4 cells): 7.4 nM
SMILES: CCOc1c(-c2ccc(Cl)cc2)c(=O)n(-c2ccc3nn(C)cc3c2)c2[nH]ncc12 [Compound 13]
T/C (%) ([1]; 5 mg/kg): 35.54%
TGI (%) ([1]; 5 mg/kg): 68.82%
T/C (%) ([1]; 10 mg/kg): 26.46%
TGI (%) ([1]; 10 mg/kg): 78.48%
T/C (%) ([1]; 20 mg/kg): 15.98%
TGI (%) ([1]; 20 mg/kg): 89.67%
in vivo efficacy, in words ([1]; 5, 10, 20 mg/kg BID): dose-dependent in vivo efficacy
